Here are results for 24 molecules from US20150119395A1, “NOVEL TRIAZOLE COMPOUNDS THAT MODULATE HSP90 ACTIVITY” (SYNTA PHARMACEUTICALS CORP., priority 2012, published 2015).

Where only a bound is given, the exact number is not on record here.

One experiment relates to Her2. Description: Her2 degradation in BT-474 cells, in-cell western (ICW), Method 2. The experiment is classed as cell-based, human. As to conditions: BT-474 cells, 24 hours, Her2 signal normalized to DRAQ5; read-out: Her2 IC50 range of compounds of the invention for inhibition of Hsp90. As to the method:
Human BT474 (HTB-20), SK-BR-3 (HTB-30) and MCF-7 breast carcinoma cells (HTB-22) from American Type Culture Collection, VA, USA were grown in Dulbecco's modified Eagle's medium with 4 mM L-glutamine and antibiotics (100 IU/ml penicillin and 100 μg/ml streptomycine; GibcoBRL). To obtain exponential cell growth, cells were trypsinized, counted and seeded at a cell density of 0.5×10^6 cells/ml regularly, every 3 days. All experiments were performed on day 1 after cell passage.
BT-474 cells were plated in the interior 60 wells of a 96 well black clear bottom plate (20,000 cells/well) in DMEM medium, with DMEM media in the surrounding 36 wells, and incubated at 37° C. with 5% CO2 overnight. On the second day, concentration response curve source plates were produced (10 point, 3-fold dilution of compounds in DMSO) followed by a 1:30 dilution in an intermediate dilution plate containing DMEM. Compound was transferred from the intermediate plate to the cell plate at a dilution of 1:10. The cells were incubated at 37° C. with 5% CO2 for 24 hours.
Cells were fixed in 4% phosphate buffered paraformaldehyde for 30 minutes at room temperature and then permeabilized by washing five times with 0.1% Triton X-100 in PBS for 5 minutes at room temperature on a shaker. Cells were blocked with Odyssey Blocking Buffer (LI-COR, #927-40000) on a shaker at room temperature for 1.5 hours followed by incubation with Her2 antibody (CST, #2165) diluted 1:400 in blocking buffer overnight on a shaker at 4° C. Cells were washed five times with 0.1% Tween-20 in PBS for 5 minutes at room temperature on a shaker and incubated with fluorescently labeled secondary antibody (LI-COR, #926-32211) diluted 1:1000 in blocking buffer, and DRAQ5 nuclear stain (Biostatus Limited, #DRAQ5) diluted 1:10,000, at room temperature on a shaker for 1 hour. Cells were washed 5 times with 0.1% Tween-20 in PBS for 5 minutes at room temperature on a shaker and imaged on a LI-COR Odyssey imaging station. The raw data was normalized to DRAQ5 and the Her2 EC50 were calculated using XLfit.
The term IC50 denotes the point on the concentration scale where inhibition reaches its midpoint. Turning to `CC(C)c1cc(-c2nnc(-c3cc(C(C)C)c(O)cc3O)n2-c2ccc(N3CCN(C)CC3)cc2)c(O)cc1O` [Compound 1, 6,6′-(4-(4-(4-methylpiperazin-1-yl)phenyl)-4H-1,2,4-triazole-3,5-diyl)bis(4-isopropylbenzene-1,3-diol)], the IC50 was 3500 nM. For the molecule `CC(C)c1cc(-c2nnc(-c3ccncc3)n2-c2ccc(N3CCN(C)CC3)cc2)c(O)cc1O` [Compound 2, 4-isopropyl-6-(4-(4-(4-methylpiperazin-1-yl)phenyl)-5-(pyridin-4-yl)-4H-1,2,4-triazol-3-yl)benzene-1,3-diol], the IC50 was 2280 nM. In the case of `CC(C)c1cc(-c2nnc(-c3ccccc3O)n2-c2ccc(N3CCN(C)CC3)cc2)c(O)cc1O` [Compound 3, 4-(5-(2-hydroxyphenyl)-4-(4-(4-methylpiperazin-1-yl)phenyl)-4H-1,2,4-triazol-3-yl)-6-isopropylbenzene-1,3-diol], the IC50 was determined as 5160 nM.

For `CC(C)c1cc(-c2nnc(-c3cccc(O)c3)n2-c2ccc(N3CCN(C)CC3)cc2)c(O)cc1O` [Compound 4, 4-(5-(3-hydroxyphenyl)-4-(4-(4-methylpiperazin-1-yl)phenyl)-4H-1,2,4-triazol-3-yl)-6-isopropylbenzene-1,3-diol], the 50% inhibitory concentration (IC50) came to 543 nM. Same read-out and setting: the figure for `CC(C)c1cc(-c2nnc(-c3ccccn3)n2-c2ccc(N3CCN(C)CC3)cc2)c(O)cc1O` [Compound 5, 4-isopropyl-6-(4-(4-(4-methylpiperazin-1-yl)phenyl)-5-(pyridin-2-yl)-4H-1,2,4-triazol-3-yl)benzene-1,3-diol] is 543 nM; for `CC(C)c1cc(-c2nnc(-c3cnccn3)n2-c2ccc(N3CCN(C)CC3)cc2)c(O)cc1O` [Compound 6, 4-isopropyl-6-(4-(4-(4-methylpiperazin-1-yl)phenyl)-5-(pyrazin-2-yl)-4H-1,2,4-triazol-3-yl)benzene-1,3-diol] it is 3400 nM. On the same count and under the same terms, the figure for `CC(C)c1cc(-c2nnc(-c3cccc(O)c3)n2-c2ccc(CN3CCN(C)CC3)cc2)c(O)cc1O` [Compound 7, 4-(5-(3-hydroxyphenyl)-4-(4-((4-methylpiperazin-1-yl)methyl)phenyl)-4H-1,2,4-triazol-3-yl)-6-isopropylbenzene-1,3-diol] is 123 nM; for `CC(C)c1cc(-c2nnc(-c3cccc(O)c3)n2-c2ccc(N3CCOCC3)cc2)c(O)cc1O` [Compound 8, 4-(5-(3-hydroxyphenyl)-4-(4-morpholinophenyl)-4H-1,2,4-triazol-3-yl)-6-isopropylbenzene-1,3-diol] it is 143 nM.

Still in this experiment, the particulars now being: Table 3; read-out: EC50 range for Her2 degradation.
A word on the EC50: it is the concentration giving half of the maximal effect. `CC(C)c1cc(-c2nnc(-c3cccc(O)c3)n2-c2ccccc2)c(O)cc1O` [Compound 9, 4-(5-(3-hydroxyphenyl)-4-phenyl-4H-1,2,4-triazol-3-yl)-6-isopropylbenzene-1,3-diol]: the concentration for a half-maximal effect (EC50) is under 200 nM. Same read-out and setting: the figure for `CC(C)c1cc(-c2nnc(-c3cccc(O)c3)n2-c2ccc(CN3CCOCC3)cc2)c(O)cc1O` [Compound 10, 4-(5-(3-hydroxyphenyl)-4-(4-(morpholinomethyl)phenyl)-4H-1,2,4-triazol-3-yl)-6-isopropylbenzene-1,3-diol] is 60 nM; for `CC(C)c1cc(-c2nnc(-c3cccc(O)c3)n2-c2cccnc2)c(O)cc1O` [Compound 11, 4-(5-(3-hydroxyphenyl)-4-(pyridin-3-yl)-4H-1,2,4-triazol-3-yl)-6-isopropylbenzene-1,3-diol] it is 300 nM. Same read-out and setting: to `CC(C)c1cc(-c2nnc(-c3cccnc3)n2-c2cccnc2)c(O)cc1O` [Compound 12, 4-(4,5-di(pyridin-3-yl)-4H-1,2,4-triazol-3-yl)-6-isopropylbenzene-1,3-diol] belongs 1000 nM; to `CC(C)c1cc(-c2nnc(-c3cccnc3)n2-c2ccc(CN3CCOCC3)cc2)c(O)cc1O` [Compound 13, 4-isopropyl-6-(4-(4-(morpholinomethyl)phenyl)-5-(pyridin-3-yl)-4H-1,2,4-triazol-3-yl)benzene-1,3-diol], 100 nM. Still for that read-out and setting: to `CC(C)c1cc(-c2nnc(-c3cc4ccccc4[nH]3)n2-c2ccccc2)c(O)cc1O` [Compound 14, 4-(5-(1H-indol-2-yl)-4-phenyl-4H-1,2,4-triazol-3-yl)-6-isopropylbenzene-1,3-diol] belongs 25 nM. As for `CC(C)c1cc(-c2nnc(-c3cccnc3)n2-c2ccccc2)c(O)cc1O` [Compound 15, 4-isopropyl-6-(4-phenyl-5-(pyridin-3-yl)-4H-1,2,4-triazol-3-yl)benzene-1,3-diol], the EC50 is under 200 nM. Take `CC(C)c1cc(-c2nnc(-c3cccnc3)n2-c2ccc(CN3CCN(C)CC3)cc2)c(O)cc1O` [Compound 16, 4-isopropyl-6-(4-(4-((4-methylpiperazin-1-yl)methyl)phenyl)-5-(pyridin-3-yl)-4H-1,2,4-triazol-3-yl)benzene-1,3-diol]: the EC50 is 18 nM. Consider `CC(C)c1cc(-c2nnc(-c3cccnc3)n2-c2ccc(N3CCOCC3)cc2)c(O)cc1O` [Compound 17, 4-isopropyl-6-(4-(4-morpholinophenyl)-5-(pyridin-3-yl)-4H-1,2,4-triazol-3-yl)benzene-1,3-diol], for which the EC50 was 38 nM. The same measure, in the same setting: the figure for `COc1cc(O)c(-c2nnc(-c3cccnc3)n2-c2ccc(CN3CCOCC3)cc2Cl)cc1C(C)C` [Compound 18, 2-(4-(2-chloro-4-(morpholinomethyl)phenyl)-5-(pyridin-3-yl)-4H-1,2,4-triazol-3-yl)-4-isopropyl-5-methoxyphenol] is 5000 nM. Still for that read-out and setting: to `CCN1CCN(Cc2ccc(-n3c(-c4cccnc4)nnc3-c3cc(C(C)C)c(O)cc3O)c(Cl)c2)CC1` [Compound 19, 4-(4-(2-chloro-4-((4-ethylpiperazin-1-yl)methyl)phenyl)-5-(pyridin-3-yl)-4H-1,2,4-triazol-3-yl)-6-isopropylbenzene-1,3-diol] belongs 52 nM; to `COc1cc(O)c(-c2nnc(-c3cccnc3)n2-c2ccc(CN3CCN(C)CC3)cc2)cc1C(C)C` [Compound 20, 4-isopropyl-5-methoxy-2-(4-(4-((4-methylpiperazin-1-yl)methyl)phenyl)-5-(pyridin-3-yl)-4H-1,2,4-triazol-3-yl)phenol], 2090 nM; to `CC(C)c1cc(-c2ccc(-c3cccnc3)n2-c2ccc(N3CCOCC3)cc2)c(O)cc1O` [Compound 21, 4-isopropyl-6-(1-(4-morpholinophenyl)-5-(pyridin-3-yl)-1H-pyrrol-2-yl)benzene-1,3-diol], 40 nM. The same measure, in the same setting: to `COc1ccc(-c2[nH]nc(-c3cc(C(C)C)c(O)cc3O)c2-c2ccc(OC)cc2)cc1` [Compound 22, 4-(4,5-bis(4-methoxyphenyl)-1H-pyrazol-3-yl)-6-isopropylbenzene-1,3-diol] belongs over 200 nM; to `COc1ccc(-c2cnc(-c3cc(C(C)C)c(O)cc3O)n2-c2ccc(N3CCOCC3)nc2)cc1` [Compound 23, 4-isopropyl-6-(5-(4-methoxyphenyl)-1-(6-morpholinopyridin-3-yl)-1H-imidazol-2-yl)benzene-1,3-diol], under 200 nM; to `COc1ccc(-c2cnc(-c3cc(C(C)C)c(O)cc3O)n2-c2ccc(CN3CCN(C)CC3)cc2)cc1` [Compound 24, 4-isopropyl-6-(5-(4-methoxyphenyl)-1-(4-((4-methylpiperazin-1-yl)methyl)phenyl)-1H-imidazol-2-yl)benzene-1,3-diol], under 200 nM.
